The subject of one assay is MDA-MB468 cells. Kind of assay: Clonogenic cell growth inhibition assay, MDA-MB468. The class given is cell-based. The conditions noted are these: Homo sapiens, MDA-MB-468; MDA-MB468 triple-negative breast cancer cells; 48 h treatment, colonies counted after additional 10 days; read-out: IC50, drug concentration required for 50% growth inhibition. As to the method: (§1) The following human breast cancer cell lines were used in these studies: (a) Triple-positive: BT474, MCF7 and T47D, (b) Triple-negative: MDA-MB231 and MDA-MB468. Cells were grown in the following medium at 37° C. under a humidified atmosphere of 5% CO2: DMEM (BT474 cells), RPMI (MCF7 and T47D cells) and MEM (MDA-MB231 and MDA-MB468 cells). For each cell line, the medium was supplemented with 10% fetal bovine serum (Hyclone, Logan, Utah) 100 U/ml of penicillin, and 100 μg/ml of streptomycin.
(§2) Cells were trypsinized and a single cell suspension was prepared. Cells were plated at a density of 5×10^2-1×10^3 cells in 60 mm tissue culture plates. After the attachment, cells were treated with different concentrations of biisoquinolines 1a-d for 48 h. After the treatment, medium containing drug was removed and supplemented with fresh medium. Cells were allowed to grow into colonies for additional 10 days. Colonies were fixed, stained with 0.3% (w/v) methylene blue, and excess of the dye was removed after washing with PBS. Colonies containing more than fifty cells were counted and the IC50 values, i.e., drug concentrations required for 50% growth inhibition of these cell lines were determined as described in our previous studies. [Balusu, R.; Jaiswal, A. S.; Armas, M. L.; Kundu, C. N.; Bloom L, B.; Narayan S. Biochemistry 2007, 46, 13961; Jaiswal, A, S.; Banerjee, S.; Panda, H.; Bulkini, C. D.; Izumi, T.; Sarkar, F. H.; Ostrov, D. A.; Narayan, S. Mol. Cancer Res. 2009, 7, 1973] The IC50 of each compound was determined from the survival curve using the SigmaPlot-10.0 software program.

The subject of the next assay is T47D cells. Kind of assay: Clonogenic cell growth inhibition assay, T47D. The class given is cell-based, human. The conditions noted are these: for IC50: Homo sapiens, T47D triple-positive breast cancer cells, 48 h treatment, colonies counted after additional 10 days, read-out: IC50, drug concentration required for 50% growth inhibition. As to the method:
as §1, §2

The subject of a further assay is BT474 cells. Briefly: Clonogenic cell growth inhibition assay, BT474. The class given is cell-based. The conditions noted are these: Homo sapiens, BT-474; BT474 triple-positive breast cancer cells; 48 h treatment, colonies counted after additional 10 days; read-out: IC50, drug concentration required for 50% growth inhibition. As to the method:
as §1, §2

The subject of a further assay is MDA-MB231 cells. Briefly: Clonogenic cell survival / cell growth inhibition assay, MDA-MB231. The class given is cell-based, human. The conditions noted are these: for IC50: 48 h treatment, colonies counted after additional 10 days, read-out: IC50, drug concentration required for 50% growth inhibition; for toxicity to cells (result in words): MDA-MB231 cells, clonogenic assay. As to the method: as §1, §2
6,6′,7,7′-tetramethoxy biisoquinoline-imidazolium 1a, as well as its precursor compounds, bisamide 3a, and diimine 4a, were tested for the growth inhibitory effect on MDA-MB-231 cells by using the clonogenic cell survival assay [Balusu, R.; Jaiswal, A. S.; Armas, M. L.; Kundu, C. N.; Bloom L, B.; Narayan S. Biochemistry 2007, 46, 13961; Jaiswal, A, S.; Banerjee, S.; Panda, H.; Bulkin, C. D.; Izumi, T.; Sarkar, F. H.; Ostrov, D. A.; Narayan, S. Mol. Cancer Res. 2009, 7, 1973]. […] Then, three other methoxylated biisoquinoline-imidazolium compounds (1b-d) were tested to probe the optimal methoxy substitution pattern.

The next assay concerns MCF7 cells. Kind of assay: Clonogenic cell growth inhibition assay, MCF7. The class given is cell-based, human. The following applies: for IC50: Homo sapiens, MCF7 triple-positive breast cancer cells, 48 h treatment, colonies counted after additional 10 days, read-out: IC50, drug concentration required for 50% growth inhibition. As to the method:
as §1, §2

The mark [1] stands for this setting: Homo sapiens, MDA-MB-231, MDA-MB231 triple-negative breast cancer cells.
Where [2] appears, read: MDA-MB231 triple-negative breast cancer cells.

Like-named read-outs stand apart in the source and are kept apart here.

Consider `COc1cc2c(cc1OC)-c1c3[n+](cn1CC2)CCc1cc(OC)c(OC)cc1-3` [1a, 2,2′,3,3′-tetramethoxy-5,6,8,9-tetrahydro-6a,7a-diazadibenzo[c,g]fluorenium]chloride], for which the IC50 in the assay with MDA-MB468 cells was 2.6 µM; in the assay with T47D cells, 34 µM; in the assay on BT474 cells, 3.1 µM; with MDA-MB231 cells (setting [1]), 19 µM; in the assay on MDA-MB231 cells (setting [2]), 20.8 µM; in the assay on MCF7 cells it was 35 µM.
Turning to `COc1ccc2c(c1OC)CCn1c[n+]3c(c1-2)-c1ccc(OC)c(OC)c1CC3` [1b, 3,3′,4,4′-tetramethoxy-5,6,8,9-tetrahydro-6a,7a-diazadibenzo[c,g]fluorenium]chloride], the IC50 in the assay on MDA-MB468 cells was 2.1 µM; with T47D cells, 13.5 µM; with BT474 cells, 0.7 µM; with MDA-MB231 cells (setting [1]) it was 18.2 µM; with MDA-MB231 cells (setting [2]), 14.2 µM; with MCF7 cells, 7.9 µM.
For the compound `COc1ccc2c(c1)CCn1c[n+]3c(c1-2)-c1ccc(OC)cc1CC3` [1c, 3,3′-dimethoxy-5,6,8,9-tetrahydro-6a,7a-diazadibenzo[c,g]fluorenium]chloride], the IC50 came out at 1.8 µM in the assay on MDA-MB468 cells; 1 µM in the assay on T47D cells; 0.3 µM in the assay with BT474 cells; 4.7 µM with MDA-MB231 cells (setting [1]); 2.4 µM in the assay on MDA-MB231 cells (setting [2]); 1.3 µM in the assay with MCF7 cells.
As for `COc1cc2c(c(OC)c1OC)CCn1c[n+]3c(c1-2)-c1cc(OC)c(OC)c(OC)c1CC3.[Cl-]` [1d, 2,2′,3,3′,4,4′-hexamethoxy-5,6,8,9-tetrahydro-6a,7a-diazadibenzo[c,g]fluorenium]chloride], the “toxicity to cells (result in words)” value in the assay with MDA-MB231 cells was “did not show any toxicity”.
As to `COc1cccc(CCNC(=O)C(=O)NCCc2cccc(OC)c2OC)c1OC` [3b, N^1,N^2-bis(2,3-dimethoxyphenethyl)oxalamide], the IC50 in the assay on MDA-MB468 cells amounted to 35.4 µM; in the assay with BT474 cells it was 34.1 µM. Moreover, the “sensitivity of cells to the compound (result in words)” value in the assay on T47D cells (T47D cells, clonogenic assay) is “resistant”; with MCF7 cells (MCF7 cells, clonogenic assay) it was “resistant”. Besides, the “toxicity to cells (result in words)” value with MDA-MB231 cells is listed as “did not show any cytotoxicity”.
As for `COc1cc2c(cc1OC)C(C1=NCCc3cc(OC)c(OC)cc31)=NCC2` [4a, 6,6′,7,7′-tetramethoxy-3,3′,4,4′-tetrahydro-1,1′-biisoquinoline], the “toxicity to cells (result in words)” value with MDA-MB231 cells is given as “non-toxic”.
Regarding `COc1ccc2c(c1OC)C(=O)O[C@@H]2[C@H]1c2c(cc3c(c2OC)OCO3)CCN1C` [noscapine, reference compound], the IC50 with MDA-MB231 cells (setting [1]) is 64 µM; with MCF7 cells, 57 µM. Besides, the “fold higher IC50 than compound 1c” value in the assay with MDA-MB231 cells (MDA-MB-231 cells, IC50 of noscapine relative to IC50 of 1c) was determined as 16 folds; in the assay on MCF7 cells (MCF7 cells, IC50 of noscapine relative to IC50 of 1c), 44 folds.

For the origin of these results see patent US9914733B2, “Biisoquinoline compounds and methods of treatment” (UNIVERSITY OF FLORIDA RESEARCH FOUNDATION, priority 2014, dated 2018).
